Patent publication US20220304957A1, “ANTI-CANCER COMPOSITIONS AND METHODS OF USE” (Board of Supervisors of Louisiana State University and …, priority 2019, published 2022)
pIC50: −log10 of the molar value. Entries after “also recorded” stand apart in the source; their conditions may differ. Where two headings read alike, the source gives them in different places. One block for each compound: values may come before it.

Columns and labels:
[1] = test system: LN229 human glioblastoma cell line; assay: Cell viability (MTT assay), LN229; format: cell-based
[2] = test system: PPAR responsive elements (PPRE); assay: PPAR luciferase assay (PPRE reporter) in HepG2 cells; format: cell-based; details: 25 μM, 24 hrs
Protocol: (§1) Aliquots of 50 μM PP1 and FF in DMSO were added to 500 μl to heparinized human blood to a final concentration of 50 μM. Following incubation at 37° C. for the indicated time points, the samples were frozen at −80° C., and later prepared for HPLC-based detection of the compounds. Please note that FF is converted to FA in the presence of human blood. […] Data represent average values with standard deviation (n=3). panel B: Water solubility. FF and PP1, were added to water to a final concentration of 50 mM and sonicated in an ultrasonic bath (Branson 1510 Digital Heated Ultrasonic bath) for one hour at room temperature. The samples were then centrifuged for 10 minutes at 16000×g, and the supernatant filtered through 0.45 μm syringe filter. Water solubilized PP1 and FF were subsequently processed for HPLC analysis (see Methods). Data represent average values with standard deviation (n=3). panel C: Effects of PP compounds on PPAR responsive elements (PPRE). The PPAR transcriptional activity was determined in HepG2 cells by the JsTkpGL3 reporter plasmid, which contains a firefly luciferase gene driven by the PPRE, which consists of three copies of the J site from the apo-AII gene promoter. To normalize for efficiency of transfection the cells were additionally transfected with the pSV40-GLuc (New England Biolabs, Ipswich, Mass.) control plasmid. […] The luciferase activity was detected with Dual-Luciferase reporter assay system (Promega, Madison, Wis.), and the resulting luminescence measured with Synergy 2 microplate reader (BioTek, Winooski, Vt.). Data represent average values with standard deviation (n=6).
PPAR Luciferase Assay—The PPAR transcriptional activity was determined by utilizing the JsTkpGL3 reporter plasmid, which contains a firefly luciferase gene driven by the PPAR responsive element (PPRE), which consists of three copies of the J site from the apo-AII gene promoter. Together with JsTkpGL3 plasmid HepG2 cells were transfected with pSV40-GLuc (New England Biolabs, Ipswich, Mass.) control plasmid expressing Gaussia luciferase under the control of the constitutive SV40 early promoter to normalize for efficiency of transfection. […] The luciferase activity was detected with Dual-Luciferase reporter assay system (Promega, Madison, Wis.), and the resulting luminescence measured with Synergy 2 microplate reader (BioTek, Winooski, Vt.).

[3] = test system: LN-229 human glioblastoma cells; details: for cell death: 25 and 50 μM, 72- and 96-hour time points; for % cell death: 50 μM (single dose)
[4] = Stability of stock solution in DMSO; format: physicochemical
[5] = test system: LN-229 cells; assay: Cell morphology, peroxisome accumulation in LN-229; format: cell-based, human; details: DMEM 1 g/L glucose, 10% FBS
Source text: Red arrows indicated accumulation of peroxisomes (black dot-like structures) around the nucleus in PP3-treated cells but not in control (DMSO). (LN229 cells, DMEM 1 g/L glucose 10% FBS P/S).

[6] = in vivo; cited from earlier work
[7] = Stability in human blood (HPLC); format: in vitro ADME; details: 50 μM added, 48-hour incubation
Protocol: as §1, with “Water solubilized PP1 and FF were subsequently processed for HPLC analysis (see Methods). Data represent average values with standard deviation (n=3). panel C: Effects of PP compounds on PPAR responsive elements (PPRE).” left out, “promoter.” for “promoter. To normalize for efficiency of transfection the cells were additionally transfected with the pSV40-GLuc (New England Biolabs, Ipswich, Mass.) control plasmid.”, “Data represent average values with standard deviation (n=6).” left out
In this experiment, 50 μM of PP1 and 50 μM of FF were incubated with human blood at […], at indicated time points. […] In contrast, nearly 25 μM of PP1 was still detected at the 48-hour time point (FIG. 4A; left panel).

SMILES: CN(CCO)C(=O)C(C)(C)Oc1ccc(C(=O)c2ccc(F)cc2)cc1 [HR9]
anti-glioblastoma activity / relative potency ([1]; 25 μM, 72 hrs, MTT): lower potency than PP1

SMILES: CC(C)(C)OC(=O)NCCCCNC(=O)C(C)(C)Oc1ccc(C(=O)c2ccc(Cl)cc2)cc1 [H28]
CV = Cell viability (% of control) ([1]; 1 μM, MTT): 92.75±3.59 % of control | CV = Cell viability (% of control) ([1]; 5 μM, MTT): 65.90±2.82 % of control | CV = Cell viability (% of control) ([1]; 10 μM, MTT): 38.31±3.50 % of control

pIC50 ([1]; Homo sapiens, LN-229, LN229, read-out: IC50 concentration): > 5.00
SMILES: CC(C)(Oc1ccc(C(=O)c2ccc(Cl)cc2)cc1)C(=O)Nc1ccccc1O [HR49, 2-(4-(4-chlorobenzoyl)phenoxy)-N-(2-hydroxyphenyl)-2-methylpropanamide]
anti-glioblastoma activity / relative potency ([1]; 25 μM, 72 hrs, MTT): more potent than HR48

SMILES: CC(C)(Oc1ccc(C(=O)c2ccc(Cl)cc2)cc1)C(=O)NCCO [HR39]
anti-glioblastoma activity / relative potency ([1]; 25 μM, 72 hrs, MTT): significantly less potent than PP1

SMILES: CN1CCN(C(=O)C(C)(C)Oc2ccc(C(=O)c3ccc(Cl)cc3)cc2)CC1.Cl [HR35, 4-{2-[4-(4-chlorobenzoyl)phenoxy]-2-methylpropanoyl}6-8,13-20,24-26,28,34,38-1-methylpiperazin-1-ium chloride]
anti-glioblastoma activity / relative potency ([1]; 25 μM, 72 hrs, MTT): more potent than its free base HR34

SMILES: CC(C)OC(=O)C(C)(C)Oc1ccc(C(=O)c2ccccc2)cc1 [HR6]
anti-glioblastoma activity / relative potency ([1]; 25 μM, 72 hrs, MTT): virtually inactive

SMILES: CN1CCN(C(=O)C(C)(C)Oc2ccc(C(=O)c3ccc(Cl)cc3)cc2)CC1 [PP2, 2-[4-(4-chlorobenzoyl)phenoxy]-2-methyl-1-(4-methylpiperazin-1-yl)propan-1-one]
effect on PPAR responsive elements (PPRE) [2]: attenuate | cell death [3]: extensive cell death

SMILES: CC(C)(Oc1ccc(C(=O)c2ccc(Cl)cc2)cc1)C(=O)N1CCC(N2CCOCC2)CC1 [H37, 2-[4-(4-chlorobenzoyl)phenoxy]-2-methyl-1-[4-(morpholin-4-yl)piperidin-1-yl]propan-1-one]
CV = Cell viability (% of control) ([1]; 1 μM, MTT): 109.20±5.73 % of control | CV = Cell viability (% of control) ([1]; 5 μM, MTT): 75.02±1.42 % of control | CV = Cell viability (% of control) ([1]; 10 μM, MTT): 47.02±1.23 % of control

SMILES: CC(C)(Oc1ccc(C(=O)c2ccc(Cl)cc2)cc1)C(=O)N(CCO)CCO [HR46]
anti-glioblastoma activity / relative potency ([1]; 25 μM, 72 hrs, MTT): almost as potent as PP1

SMILES: CC(C)(Oc1ccc(C(=O)c2ccc(Cl)cc2)cc1)C(=O)N1CC[N+](C)(C)CC1 [HR36, 4-{2-[4-(4-chlorobenzoyl)phenoxy]-2-methylpropanoyl}-1,1-dimethylpiperazin-1-ium iodide]
viability at 25 µM ([1]; Homo sapiens, LN-229, 25 μM, 72 hrs, MTT, read-out: CV = Cell viability (% of control)): 98%

SMILES: CC(Oc1ccc(C(=O)c2ccc(Cl)cc2)cc1)C(=O)N1CCC(O)CC1 (stereo not drawn) [HR21]
cell death ([1]; 25 μM, 72 hrs): about 60%

SMILES: CC(C)(Oc1ccc(C(=O)c2ccc(Cl)cc2)cc1)C(=O)N1CCC(N2CCOCC2)CC1 [PP4, 2-[4-(4-chlorobenzoyl)phenoxy]-2-methyl-1-[4-(morpholin-4-yl)piperidin-1-yl]propan-1-one]
effect on PPAR responsive elements (PPRE) [2]: attenuate | cell death [3]: extensive cell death

SMILES: CC(C)(Oc1ccc(C(=O)c2ccc(Cl)cc2)cc1)C(=O)NC(CO)CO [HR43]
anti-glioblastoma activity / relative potency ([1]; 25 μM, 72 hrs, MTT): almost identical

SMILES: CC(C)(Oc1ccc(C(=O)c2ccc(Cl)cc2)cc1)C(=O)NCC(O)CO (stereo not drawn) [HR42]
anti-glioblastoma activity / relative potency ([1]; 25 μM, 72 hrs, MTT): almost identical

SMILES: CC(C)OC(=O)C(C)(C)Oc1ccc(C(=O)c2ccc(F)cc2)cc1 [HR8]
anti-glioblastoma activity / relative potency ([1]; 25 μM, 72 hrs, MTT): virtually the same activity (CV) as FF

SMILES: CC(Oc1ccc(C(=O)c2ccc(Cl)cc2)cc1)C(=O)N1CCCCC1 (stereo not drawn) [HR22]
cell death ([1]; 25 μM, 72 hrs): about 60%

SMILES: CN1CCN(C(=O)C(C)(C)Oc2ccc(C(=O)c3ccc(Cl)cc3)cc2)CC1.Cl [H35]
CV = Cell viability (% of control) ([1]; 1 μM, MTT): 93.64±2.08 % of control | CV = Cell viability (% of control) ([1]; 5 μM, MTT): 79.34±1.70 % of control | CV = Cell viability (% of control) ([1]; 10 μM, MTT): 56.26±0.59 % of control

SMILES: CN(CC(O)CO)C(=O)C(C)(C)Oc1ccc(C(=O)c2ccc(Cl)cc2)cc1 (stereo not drawn) [HR44]
anti-glioblastoma activity / relative potency ([1]; 25 μM, 72 hrs, MTT): more potent than the secondary amide HR39

SMILES: CC(C)(Oc1ccc(C(=O)c2ccc(F)cc2)cc1)C(=O)N1CCCCC1 [HR11]
anti-glioblastoma activity / relative potency ([1]; 25 μM, 72 hrs, MTT): slightly higher biological activity

SMILES: CN(CC(O)C(O)C(O)C(O)CO)C(=O)C(C)(C)Oc1ccc(C(=O)c2ccc(Cl)cc2)cc1 [PP3, 2-[4-(4-chlorobenzoyl)phenoxy]-N,2-dimethyl-N-[(2S,3R,4R,5R)-2,3,4,5,6-pentahydroxyhexyl]propenamide]
effect on PPAR responsive elements (PPRE) [2]: does not repress PPAR responsive elements; also recorded: does not share this PPAR-inhibitory activity | stability dissolved in DMSO [4]: quite unstable | accumulation of peroxisomes [5]: extensive accumulation of peroxisomes | cytostatic effect ([3]; 10 μM): cytostatic activity

SMILES: CC(C)(Oc1ccc(C(=O)c2ccc(Cl)cc2)cc1)C(=O)NC(CO)(CO)CO [HR45]
anti-glioblastoma activity / relative potency ([1]; 25 μM, 72 hrs, MTT): slightly decreases the potency

SMILES: CC(C)(Oc1ccc(C(=O)c2ccc(Cl)cc2)cc1)C(=O)N(CCO)CCO [H46]
CV = Cell viability (% of control) ([1]; 1 μM, MTT): 103.00±2.98 % of control | CV = Cell viability (% of control) ([1]; 5 μM, MTT): 86.15±8.50 % of control | CV = Cell viability (% of control) ([1]; 10 μM, MTT): 51.97±10.27 % of control

SMILES: CC(C)(Oc1ccc(C(=O)c2ccc(Cl)cc2)cc1)C(=O)N1CCC([NH+]2CCOCC2)CC1.[Cl-] [H38, 4-(1-{2-[4-(4-chlorobenzoyl)phenoxy]-2-methylpropanoyl}piperidin-4-yl)morpholin-4-iumchloride]
CV = Cell viability (% of control) ([1]; 1 μM, MTT): 97.97±11.41 % of control | CV = Cell viability (% of control) ([1]; 5 μM, MTT): 74.89±1.79 % of control | CV = Cell viability (% of control) ([1]; 10 μM, MTT): 52.00±1.86 % of control

SMILES: CC(C)(Oc1ccc(C(=O)c2ccc(Cl)cc2)cc1)C(=O)NCCCCN [HR31]
anti-glioblastoma activity / relative potency ([1]; 25 μM, 72 hrs, MTT): CV value similar to that of 25 μM FF

SMILES: CC(C)(Oc1ccc(C(=O)c2ccc(Cl)cc2)cc1)C(=O)N1CCC(O)CC1 [HR41]
anti-glioblastoma activity / relative potency ([1]; 25 μM, 72 hrs, MTT): less potent than PP1

SMILES: CC(C)OC(=O)C(C)(C)Oc1cccc(C(=O)c2ccccc2)c1 [HR7]
anti-glioblastoma activity / relative potency ([1]; 25 μM, 72 hrs, MTT): virtually inactive

SMILES: CC(C)(Oc1ccc(C(=O)c2ccc(Cl)cc2)cc1)C(=O)O [FA, fenofibric acid]
crossing of the blood brain tumor barrier (BBTB) [6]: do not cross

SMILES: CC(C)OC(=O)C(C)(C)Oc1ccc(C(=O)c2ccc(Cl)cc2)cc1 [FF, fenofibrate, reference compound]
conversion to FA in human blood [7]: almost all FF was converted to FA | % cell death ([3]; 48 hours): 24+/−4% | % cell death ([3]; 72 hours): 90+/−1% | % cell death ([3]; 96 hrs): 99+/−1.2%

SMILES: CC(C)(Oc1ccc(C(=O)c2ccc(Cl)cc2)cc1)C(=O)N1CCC(N2CCOCC2)CC1 [HR37, 2-[4-(4-chlorobenzoyl)phenoxy]-2-methyl-1-[4-(morpholin-4-yl)piperidin-1-yl]propan-1-one]
anti-glioblastoma activity / relative potency ([1]; 25 μM, 72 hrs, MTT): more potent than its hydrochloric salt (HR38)
